Test results: patent publication US6337346B1 (University of North Carolina at Chapel Hill, priority 1998, dated 2002)
In brackets after ≈: the same amount, converted by molar mass. Where two headings read alike, the source gives them in different places.

Experiments:
HCT-15 = assay: NCI in vitro human tumor cell line assay; format: cell-based; conditions: Colon Cancer HCT-15, Table 3 (numbering of Examples 14-16), average of at least two testings, read-out: Cytotoxicity log GI50 (converted)
NCI-H460 = assay: NCI in vitro human tumor cell line assay; format: cell-based; conditions: Non-Small Cell Lung Cancer NCI-H460, Table 3 (numbering of Examples 14-16), average of at least two testings, read-out: Cytotoxicity log GI50 (converted)
CAKI-1 = assay: Preliminary cytotoxicity testing of 6 and 16 (Table 1); format: cell-based; conditions: Homo sapiens, Table 1, preliminary testing
MDA-MB-435 = assay: NCI in vitro disease-oriented tumor cells screen; format: cell-based, human; conditions: Homo sapiens, Breast Cancer MDA-MB-435, average of at least two testings, read-out: Cytotoxicity log GI50 (converted)
From the text: (§1) (Activity is defined as log GI50<−4 where GI50 is the molar concentration causing 50% cell growth inhibition).

SW-620 = assay: NCI in vitro human tumor cell line assay; format: cell-based; conditions: Colon Cancer SW-620, Table 3 (numbering of Examples 14-16), average of at least two testings, read-out: Cytotoxicity log GI50 (converted)
LOX IMVI = assay: NCI in vitro disease-oriented tumor cells screen; format: cell-based, human; conditions: Homo sapiens, Melanoma LOX IMVI, average of at least two testings, read-out: Cytotoxicity log GI50 (converted)
From the text: as §1

[1] = system: several leukemia cell lines; assay: Preliminary cytotoxicity testing, summary in words; format: cell-based
KB = assay: Preliminary cytotoxicity testing of 6 and 16 (Table 1); format: cell-based; conditions: Homo sapiens, Table 1, preliminary testing
SK-MEL-5 = assay: NCI in vitro disease-oriented tumor cells screen; format: cell-based, human; conditions: Homo sapiens, Melanoma SK-MEL-5, average of at least two testings, read-out: Cytotoxicity log GI50 (converted)
From the text: as §1

human tumor cell lines [2] = assay: NCI in vitro screen, mean over all cell lines tested; conditions: Homo sapiens, read-out: Cytotoxicity log GI50, Mean Value (converted)
From the text: as §1

MCF-7 = assay: Preliminary cytotoxicity testing of 6 and 16 (Table 1); format: cell-based; conditions: Homo sapiens, MCF7, Table 1, preliminary testing
MDA-N = assay: NCI in vitro disease-oriented tumor cells screen; format: cell-based, human; conditions: Homo sapiens, Breast Cancer MDA-N, average of at least two testings, read-out: Cytotoxicity log GI50 (converted)
From the text: as §1

KB cells = assay: Preliminary KB cell assay (cytotoxicity); format: cell-based; conditions: Homo sapiens, numbering of Examples 14-16, read-out: ED50 (the source's name)
Experimental: Many anthraquinones, including mitoxantrone (1), show antineoplastic activity (Zee-Cheng, R. Y.; Podrebarac, E. G; Menon, C. S.; Cheng, C. C. J. Med. Chem. 1979, 22, 501-505). In addition, the natural product 2-acetyl-4H, 9H-naphtho[2,3-b]furan-4,9-dione (2) isolated from Tabebuia cassinoids (Lam.) DC.
The unsubstituted (3), two mono-acetyl (5, 6), and two di-acetyl (9, 10) derivatives were tested for cytotoxicity in a preliminary KB cell assay.

MOLT-4 [3] = conditions: human
MCF 7 = assay: NCI in vitro human tumor cell line assay; format: cell-based; conditions: MCF7, Breast Cancer MCF 7, Table 3 (numbering of Examples 14-16), average of at least two testings, read-out: Cytotoxicity log GI50 (converted)
NCI-H552 = assay: NCI in vitro human tumor cell line assay; format: cell-based; conditions: Non-Small Cell Lung Cancer NCI-H552, Table 3 (numbering of Examples 14-16), average of at least two testings, read-out: Cytotoxicity log GI50 (converted)
CCRF-CEM = assay: NCI in vitro human tumor cell line assay; format: cell-based; conditions: Leukemia CCRF-CEM, Table 3 (numbering of Examples 14-16), average of at least two testings, read-out: Cytotoxicity log GI50 (converted)
NCI-H23 = assay: NCI in vitro disease-oriented tumor cells screen; format: cell-based, human; conditions: Homo sapiens, Non-Small Cell Lung Cancer NCI-H23, average of at least two testings, read-out: Cytotoxicity log GI50 (converted)
From the text: as §1

IGROV1 = assay: NCI in vitro human tumor cell line assay; format: cell-based; conditions: IGROV-1, Ovarian Cancer IGROV1, Table 3 (numbering of Examples 14-16), average of at least two testings, read-out: Cytotoxicity log GI50 (converted)
SNB-19 = assay: NCI in vitro human tumor cell line assay; format: cell-based; conditions: CNS Cancer SNB-19, Table 3 (numbering of Examples 14-16), average of at least two testings, read-out: Cytotoxicity log GI50 (converted)
OVCAR-3 = assay: NCI in vitro disease-oriented tumor cells screen; format: cell-based, human; conditions: Homo sapiens, Ovarian Cancer OVCAR-3, average of at least two testings, read-out: Cytotoxicity log GI50 (converted)
From the text: as §1

A549 = assay: Preliminary cytotoxicity testing of 6 and 16 (Table 1); format: cell-based; conditions: Homo sapiens, Table 1, preliminary testing
MCF 7/ADR-RES = assay: NCI in vitro human tumor cell line assay; format: cell-based; conditions: MCF7, Breast Cancer MCF 7/ADR-RES, Table 3 (numbering of Examples 14-16), average of at least two testings, read-out: Cytotoxicity log GI50 (converted)
SF-539 = assay: NCI in vitro human tumor cell line assay; format: cell-based; conditions: CNS Cancer SF-539, Table 3 (numbering of Examples 14-16), average of at least two testings, read-out: Cytotoxicity log GI50 (converted)
MOLT-4 [4] = assay: NCI in vitro human tumor cell line assay; conditions: MOLT-4, read-out: Cytotoxicity log GI50 (converted)
HCT-8 = assay: Preliminary cytotoxicity testing of 6 and 16 (Table 1); format: cell-based; conditions: Homo sapiens, Table 1, preliminary testing
L-1210 = assay: as above; format: cell-based; conditions: Mus musculus, L1210, Table 1, preliminary testing
P-399 = assay: as above; format: cell-based; conditions: Table 1, preliminary testing
UACC-257 = assay: NCI in vitro disease-oriented tumor cells screen; format: cell-based, human; conditions: Homo sapiens; Melanoma UACC-257; Table 2; average of at least two testings; read-out: Cytotoxicity log GI50 (converted)
From the text: as §1

BT-549 = assay: NCI in vitro disease-oriented tumor cells screen; format: cell-based, human; conditions: Homo sapiens; Breast Cancer BT-549; Table 2; average of at least two testings; read-out: Cytotoxicity log GI50 (converted)
From the text: as §1

HS 578T = assay: NCI in vitro disease-oriented tumor cells screen; format: cell-based, human; conditions: Homo sapiens; Breast Cancer HS 578T; Table 2; average of at least two testings; read-out: Cytotoxicity log GI50 (converted)
From the text: as §1

human tumor cell lines [5] = system: human tumor cell lines
From the text: as §1

M14 = assay: NCI in vitro disease-oriented tumor cells screen; format: cell-based, human; conditions: Homo sapiens; Melanoma M14; Table 2; average of at least two testings; read-out: Cytotoxicity log GI50 (converted)
From the text: as §1

MALME-3M = assay: NCI in vitro disease-oriented tumor cells screen; format: cell-based, human; conditions: Homo sapiens; Melanoma MALME-3M; Table 2; average of at least two testings; read-out: Cytotoxicity log GI50 (converted)
From the text: as §1

SK-MEL-2 [6] = assay: NCI in vitro disease-oriented tumor cells screen; format: cell-based, human; conditions: Homo sapiens; Melanoma SK-MEL-2; Table 2; average of at least two testings; read-out: Cytotoxicity log GI50 (converted)
From the text: as §1

HL-60(TB) = assay: NCI in vitro disease-oriented tumor cells screen; format: cell-based, human; conditions: Homo sapiens; Leukemia HL-60(TB); Table 2; average of at least two testings; read-out: Cytotoxicity log GI50 (converted)
From the text: as §1

SK-MEL-28 = assay: NCI in vitro disease-oriented tumor cells screen; format: cell-based, human; conditions: Homo sapiens; Melanoma SK-MEL-28; Table 2; average of at least two testings; read-out: Cytotoxicity log GI50 (converted)
From the text: as §1

OVCAR-8 = assay: NCI in vitro disease-oriented tumor cells screen; format: cell-based, human; conditions: Homo sapiens; Ovarian Cancer OVCAR-8; Table 2; average of at least two testings; read-out: Cytotoxicity log GI50 (converted)
From the text: as §1

melanoma cell lines = assay: NCI in vitro screen, melanoma cell lines as a group; format: cell-based, human; conditions: numbering of Examples 1-13
From the text: as §1

UACC-62 = assay: NCI in vitro disease-oriented tumor cells screen; format: cell-based, human; conditions: Homo sapiens; Melanoma UACC-62; Table 2; average of at least two testings; read-out: Cytotoxicity log GI50 (converted)
From the text: as §1

SK-MEL-2 [7] = assay: Preliminary cytotoxicity testing of 6 and 16 (Table 1); format: cell-based; conditions: Homo sapiens, Table 1, preliminary testing
[8] = Table 3 (numbering of Examples 14-16)
[9] = Table 2 (numbering of Examples 1-13)

CC(=O)c1csc2c1C(=O)c1ccccc1C2=O [Compound 6, 3-Acetyl-naphtho[2,3-b]thiophene-4,9-dione]
GI50 (HCT-15): 17.4 µM | GI50 (NCI-H460): 1.32 µM | IC50 (CAKI-1): 0.28 µg/mL (≈ 1.09 µM) | GI50 (MDA-MB-435; [8]): 0.324 µM | GI50 (SW-620): 2.19 µM | GI50 (LOX IMVI; [8]): 2.34 µM | activity against several leukemia cell lines (in words) [1]: significant activity | IC50 (KB): 0.058 µg/mL (≈ 0.226 µM) | GI50 (SK-MEL-5; [8]): 0.17 µM | GI50 (human tumor cell lines [2]): 2.14 µM | IC50 (MCF-7): 0.09 µg/mL (≈ 0.351 µM) | GI50 (MDA-N; [8]): 0.933 µM | EC50 (KB cells): 5 µM | melting point: 244 to 245 °C | Cytotoxicity log GI50 (MOLT-4 [3]): <−8.00 M | GI50 (MCF 7): 2.09 µM | GI50 (NCI-H552): 1.74 µM | GI50 (CCRF-CEM): 1.55 µM | GI50 (NCI-H23; [8]): 1.05 µM | GI50 (IGROV1): 2.45 µM | GI50 (SNB-19): 1.78 µM | GI50 (OVCAR-3; [8]): 3.55 µM | IC50 (A549): 0.048 µg/mL (≈ 0.187 µM) | GI50 (MCF 7/ADR-RES): 2.88 µM | GI50 (SF-539): 2.04 µM | GI50 (MOLT-4 [4]): < 0.01 µM | IC50 (HCT-8): 0.06 µg/mL (≈ 0.234 µM) | IC50 (L-1210): 0.32 µg/mL (≈ 1.25 µM) | IC50 (P-399): < 0.1 µg/mL

CC(=O)OC(C)c1cc2c(s1)C(=O)c1c(C(C)OC(C)=O)csc1C2=O (centres unmarked) [Compound 15, 2,7-Bis(1′-acetoxyethyl)-4,8-dihydrobenzo[1,2-b:4,5-b′]dithiophene-4,8-dione]
GI50 (UACC-257): 0.631 µM | GI50 (BT-549): 2.14 µM | GI50 (HS 578T): 2.09 µM | overall cytotoxicity / potency (in words) (human tumor cell lines [5]): less active in all cell lines | GI50 (M14): 0.513 µM | GI50 (MDA-MB-435; [9]): 0.186 µM | GI50 (LOX IMVI; [9]): 1.58 µM | GI50 (MALME-3M): 0.186 µM | GI50 (SK-MEL-5; [9]): 0.631 µM | GI50 (human tumor cell lines [2]): 1.2 µM | GI50 (MDA-N; [9]): 0.214 µM | GI50 (SK-MEL-2 [6]): 1.55 µM | melting point: 180 to 182 °C | GI50 (HL-60(TB)): 0.0676 µM | GI50 (SK-MEL-28): 1.66 µM | GI50 (OVCAR-8): 0.457 µM | GI50 (NCI-H23; [9]): 0.871 µM | GI50 (OVCAR-3; [9]): 0.275 µM | potency / selectivity towards melanoma cell lines (in words) (melanoma cell lines): not selective towards melanoma cell lines | GI50 (UACC-62): 1.1 µM

O=C1c2ccsc2C(=O)c2sccc21 [Compound 16]
IC50 (SK-MEL-2 [7]): 0.06 µg/mL (≈ 0.272 µM) | IC50 (CAKI-1): 0.11 µg/mL (≈ 0.499 µM) | activity against several leukemia cell lines (in words) [1]: significant activity | IC50 (KB): 0.05 µg/mL (≈ 0.227 µM) | IC50 (MCF-7): < 0.016 µg/mL | IC50 (A549): 0.032 µg/mL (≈ 0.145 µM) | IC50 (HCT-8): 0.032 µg/mL (≈ 0.145 µM)
